Data: PMC7986153, “A Functional Chemiluminescent Probe for in Vivo Imaging of Natural Killer Cell Activity Against Tumours” (Angewandte Chemie (International Ed. in English), 2021)
Where a SMILES comes first, the peptide text is derived from it. The star is where a group is joined. AMC = Cc1cc(=O)oc2cc(N*)ccc12

Target: T1, hr‐granzyme B (Homo sapiens, UniProt P10144)
T1 construct: in the absence and presence of active human recombinant (hr)‐granzyme B
Experiment: Time-course signal-to-noise ratios after reaction with granzyme B
Format: biochemical
Settings: Ac-IEPD-AMC 25 μM, hr-granzyme B 20 nM, aqueous buffer 37 °C, fluorescence 450 nm, over 30 minutes; mean ± SEM, n=6
Protocol: In vitro characterisation assays. Enzymatic assays were run in a 384-well format in a PCR opaque microplate (Thermo Scientific). All experiments were performed at least in triplicate. Dilutions and reactions using human GZM B and human neutrophil elastase were prepared in 50 mM Tris-HCl and 100 mM NaCl (pH 7.4). GZM A assays were performed in 25 mM HEPES, 0.1% CHAPS and 10 mM DTT (pH 7.5). Dilutions and incubations with CASP8 and CASP9 were prepared in 50 mM HEPES, 100 mM NaCl, 0.1% Triton X-100, 10 mM DTT, 1 mM EDTA and 10% glycerol (pH 7.4). Any other tested biomolecules were prepared in PBS. Proteolytic activity was determined by calculating the fold change in chemiluminescence signal (or fluorescence signal in the case of Ac - IEPD-AMC) over background signal provided by the corresponding dilution of the probes with the enzyme using a spectrophotometer (Synergy H1 Hybrid Reader, BioTek) at 37°C.
Unless otherwise stated, probes were utilized at a concentration of 100 μM. Enzyme concentration used: 20 nM (except CASP9, which was used at 200 nM) and all other biomolecules were tested at 100 μM. In the case where an inhibitor was used, the enzyme was pre-incubated for 1 h with the inhibitor (100 µM) before addition of probe 1.
Cell culture. […]

T1 sequence (P10144 21-247): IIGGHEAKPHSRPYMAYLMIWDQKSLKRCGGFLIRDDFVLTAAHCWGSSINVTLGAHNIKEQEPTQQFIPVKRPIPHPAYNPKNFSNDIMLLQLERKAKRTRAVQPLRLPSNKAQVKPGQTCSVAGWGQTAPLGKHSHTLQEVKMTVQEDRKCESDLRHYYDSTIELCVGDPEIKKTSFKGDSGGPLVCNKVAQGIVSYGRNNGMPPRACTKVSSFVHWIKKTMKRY

Signal‐to‐noise (S/N) ratio: under 5
SMILES: CC[C@H](C)[C@H](NC(C)=O)C(=O)N[C@@H](CCC(=O)O)C(=O)N1CCC[C@H]1C(=O)N[C@@H](CC(=O)O)C(=O)Nc1ccc2c(C)cc(=O)oc2c1 [Ac‐IEPD‐AMC] (Ac-IEPD-{AMC})
